Results on 86 compounds are retold here after a melting point compilation (Tetko et al.; mined from patent text by program, amines drawn as free bases though some values may be those of a salt).

`CS(=O)(=O)c1ccc(Cc2n[nH]c3c2c(=O)n(-c2ccccc2)c2ncccc32)cc1` returned a melting point of 312 °C.
For `O=C(Nc1nnn[nH]1)c1ccccc1O` the value was 264 to 266 °C; for `CS(=O)(=O)c1ccc2c(c1)[C@@H](Oc1ccc(C#N)cc1Cl)[C@H](N1CCC[C@@H](N)C1)C2`, 162 °C.
Consider `N#Cc1cccnc1N1CCN(CNC(=O)c2ccccc2)CC1`, for which the melting point was in the range of 133 to 136 °C.
The compound `COc1ccc2ccc(C(O)C(F)(F)F)cc2c1` (stereo unspecified) displayed a melting point of 85 to 87 °C.
`COCCNS(=O)(=O)c1ccc2[nH]c(=O)c(=O)[nH]c2c1`: the melting point is 264 to 267 °C.
As to `CC(COc1ccc(-n2cncn2)cc1)(NS(=O)(=O)Cc1ccccc1)C(N)=O` (stereo unspecified), the melting point lay within 195 to 198 °C.
For the compound `O=C1NC2(CCc3ccccc32)c2ccccc21` (stereo unspecified), the melting point fell in the range of 205 to 206 °C.
Consider `Cc1cc(Nc2ccnc(Nc3ccc(S(=O)(=O)N(C)C4CCN(Cc5cn[nH]c5)CC4)cc3)n2)ccc1F`, for which the melting point was found to be 224 °C.
Compound `CC(=O)n1ncc(=O)[nH]c1=O` yielded a melting point of 150 °C.
`Cc1cc(-c2nnc3c4ccccc4c(OCc4ncn(C(C)C)n4)nn23)no1` gave a melting point of 179 to 181 °C.
For `CCSc1nc(Nc2ccc(F)cc2F)c(C(=O)OC)cc1F` the value was 113 to 114 °C; for `CN1CC(c2cc(OCc3ccccc3)ncn2)=C(O)C1=O`, 203 to 204 °C; for `Cc1cc(C[C@@H](NC(=O)c2ccc(F)c3ccccc23)[C@@H](O)c2ccc(F)cc2)cc(OC(F)(F)C(F)F)c1` (racemic), 189 to 190 °C.
On to `COc1cc(OC)c2c(=O)[nH]c(-c3cc(C)c(CCCN4CCCC4)c(C)c3)nc2c1`, for which the melting point was 194 to 196 °C.
The same measure for `O=C1c2c(Cl)cccc2-n2cnc(CO)c2C2CCCN12` (stereo unspecified): 303 to 305 °C; for `O=S(=O)(Nc1ccc2c(OCc3ccc(-c4ccc(Cl)c(Cl)c4)cc3Cl)cccc2c1)C(F)(F)F`: 169 to 170 °C.
The same measure for `CCCCCC(O)CCCOC(=O)c1ccccc1` (stereo unspecified): 90 to 93 °C; for `CCOC(=O)c1nc(-c2cccnc2)[nH]c1N=NN(C)C`: 125 °C; for `CCCCOc1ccc(-c2ccc(=O)[nH]n2)cc1OC`: 165 °C.
The same measure for `CCOC(=O)c1cn(Cc2ccccc2)nc1OCc1ccc(OCc2nc(-c3ccco3)oc2C)c(C)c1`: 120 to 121 °C; for `CC(C)CN1CN(C)CN(c2c(Cl)cccc2Cl)C1=S`: 133 to 135 °C.
With `CNCC(=O)NC(=O)OC(C)(C)C`, the melting point is 103 °C.
`CN(C)C(=O)c1cc(N(C)C)cc(C(=O)N(C)C)n1` showed a melting point of 175 to 178 °C.
The compound `COc1ccc(C(=O)Nc2c(Cl)cncc2Cl)c2c1oc1ccc(C(F)(F)F)cc12` came in with a melting point of 298 °C.
Take `CC(=Cc1cn(-c2cccnc2)c2ccccc12)C(=O)O`: the melting point fell in the range of 213 to 215 °C.
For `COC(=O)CC(C#Cc1ccc(C(=O)O)cc1)c1ccc(OC)c(OC2CCCC2)c1` (racemic) the value was 109 to 110 °C; for `NS(=O)(=O)c1ccccc1-n1cccn1`, 167 to 170 °C.
Take `Cc1cc(N(C)CC(=O)N2CCN(Cc3ccc4c(c3)OCO4)CC2)ccc1Oc1ccc(NC(=O)c2ccc(C(F)(F)F)cc2)cn1`: the melting point lay in the range of 128 to 131 °C.
The compound `OC(c1ccccc1)(c1cc2ccccc2s1)C1CCN(CCc2ccccc2)CC1` (stereo unspecified) yielded a melting point of 144 to 146 °C.
For `CN1CCN(c2ccc(S(=O)(=O)Oc3ccccc3)c(Cl)c2[N+](=O)[O-])CC1` the value was 94 to 95 °C; for `Cc1ccc(S(=O)(=O)OCCCn2c3c(c4ccccc4c2=O)C(=O)c2ccccc2-3)cc1`, 177 to 179 °C; for `COC(=O)c1ccc(COc2ccc3c(c2)CCN(C2CCN(C4CCC4)CC2)C3=O)cc1`, 165 to 166 °C.
The same measure for `C[C@@H](n1cnc2cc(N3CCN(C)CC3)ccc2c1=O)[C@](O)(Cn1cncn1)c1ccc(F)cc1F`: 121 to 131 °C.
For `CSc1nc(I)ncc1Br` the value was 72 to 76 °C; for `Cn1cc(CC(=O)O)c(OCc2cc(OCc3ccc4ccccc4n3)no2)n1`, 124 to 125 °C.
Regarding `CCCS(=O)(=O)c1cccnc1S(=O)(=O)NC(=O)Nc1nc(OC)cc(OC)n1`, the melting point was 168 to 170 °C.
The same measure for `Clc1cc(Cl)c(C#C[Si](c2ccccc2)(c2ccccc2)c2ccccc2)c(Cl)c1`: 115 to 120 °C; for `CCOC(=O)N=P(c1ccccc1)(c1ccccc1)c1ccccc1C`: 113 to 114 °C.
The same measure for `CCn1cc(C2(c3cccc(-c4cccnc4F)c3)N=C(N)N3CCCN=C32)cn1` (stereo unspecified): 91 to 115 °C.
For `O=c1[nH]c(N[N+](=O)[O-])ncc1Cc1cccc2ccccc12` the value was 226 to 227 °C.
Turning to `O=Cc1ccc(OCc2ccsc2)cc1OC(C(=O)O)c1ccccc1` (racemic), the melting point was 172 to 174 °C.
The same measure for `COC(=O)c1ccc2cc(C(=O)c3cc(OCc4ccc(F)cc4)c4c(c3)C(C)(C)CCC4(C)C)ccc2c1`: 179 °C; for `CCCc1nc2ccccc2n1CC1=C(c2cccc(-c3nnn[nH]3)c2)CCC1`: 116 to 119 °C; for `CC1(C)COP(N(C2CC(C)(C)NC(C)(C)C2)C2CC(C)(C)NC(C)(C)C2)OC1`: 156 °C.
`Fc1ccccc1/C=C/c1ccc(N(c2ccccc2)c2ccccc2)cc1` showed a melting point of 114 to 115 °C.
The same measure for `CCc1cccc(CC)c1NC(=NCc1cccc(CCl)c1)Nc1c(CC)cccc1CC`: 83.5 to 86.5 °C; for `C=C(OCCc1nc(C(C)C)c(Sc2cc(Cl)cc(Cl)c2)n1C)C12CC3CC(CC(C3)C1)C2`: 114 to 116 °C; for `CCOC(=O)C(=O)CC(=O)c1cn(Cc2ccccc2F)c2cc(Cl)ccc2c1=O`: 173 to 175 °C.
For `O=[N+]([O-])c1c(SCc2ccccc2)ccc2ccncc12` the value was 151 to 153 °C; for `CCC(=O)Oc1cc([N+](=O)[O-])cc([N+](=O)[O-])c1OC(=O)CC`, 72 to 73 °C.
For `Oc1ccc(Sc2ccc(-c3ccc(Sc4ccc(O)cc4)cc3)cc2)cc1` the value was 214 to 217 °C; for `Cc1cc(Cl)ccc1NS(=O)(=O)c1cc(S(=O)(=O)Nc2ccc(Cl)cc2C)c2cc(O)ccc2c1`, 140 to 142 °C.
In the case of `CCc1oc2ccccc2c1C(=O)NCc1ccc2c(Br)c(OC(Cc3ccccc3)C(=O)OC)ccc2c1` (stereo unspecified), the melting point is 139 to 143 °C.
The same measure for `CCCCc1nn(-c2cc(NC(=O)CC)ccc2Cl)c(=O)n1Cc1ccc(-c2ccccc2S(=O)(=O)NC(=O)c2cc(Cl)ccc2Cl)cc1F`: 169 to 172 °C; for `O=c1[nH]c2cc(Cl)c(Cl)cc2cc1P(=O)(O)O`: over 300 °C.
The same measure for `CON=C(C(C)=C(ON)c1ccccc1C(=NOC)C(=O)OC)c1ccc(F)cc1F`: 110 to 119 °C; for `COC(=O)c1cc(N(CCO)CCO)c(S(C)(=O)=O)cc1[N+](=O)[O-]`: 99 to 100 °C; for `CCOc1cc2c(cc1OCC)C(C(C#N)SCCO)=NCC2` (stereo unspecified): 94 to 96 °C.
As for `CCOCC1C(C(=O)O)C1(C)C` (stereo unspecified), the melting point was 40 to 40.5 °C.
The same measure for `CC(C)C(=O)NCc1cccc2c1C(=O)N(C1CCC(=O)NC1=O)C2=O` (stereo unspecified): 218 to 220 °C; for `N=C(Nc1ccccc1-c1cccc(F)c1)N1CCC(O)CC1`: 147 to 148 °C; for `COC(=O)c1ncoc1-c1cccs1`: 64 to 66 °C.
As to `COc1ccc(-n2c(N)cc(=O)nc2Nc2ccccc2)cc1`, the melting point is 180 to 190 °C.
`CCN(CC)C(=O)Sc1cc(OC)c(OC)cc1C(=O)c1ccccc1` displayed a melting point of 114 to 116 °C.
The same measure for `CC(C)(C)N1C(=O)C(=O)N(c2ccc(C#N)cc2)C1=S`: 200 to 201 °C; for `CC(C)(C)OC(=O)CCc1ccc(-c2nc(=O)c3ccccc3s2)nc1`: 160 to 161 °C.
Regarding `CCOC(=O)CC(=O)COCC1=C(C(=O)OCC)C(c2ccccc2Cl)C(C(=O)OC)=C(C)N1` (stereo unspecified), the melting point was 88 to 89 °C.
In the case of `CS(=O)(=O)c1ccnc(-c2nc(=O)c3ccccc3s2)c1`, the melting point lay within 300 to 301 °C.
In turn, `Cc1cccc(C)c1NC(=O)C(C)N1CCN(CCC2CCOc3ccccc32)CC1` (stereo unspecified) displayed a melting point of 130 °C.
For `Cc1cc(CCCOc2c(C)cc(-c3noc(=N)[nH]3)cc2C)on1` the value was 175 to 183 °C.
For `O=C(O)CCCc1ccc(CCNS(=O)(=O)c2ccccc2)cc1`, the melting point fell in the range of 70 to 71 °C.
The same measure for `C=CCOc1cccc(C(=O)CCC(=O)OC)c1`: 30 to 32.5 °C.
The compound `CCN(CC)CCOC(=N)N1CCC(c2nsc3ccccc23)CC1` displayed a melting point of 84 to 86 °C.
The same measure for `Cc1c(N)c(C#N)cc(F)c1F`: 114 to 116 °C; for `Cn1nnnc1-c1cn(C)c2cc(S(=O)c3ccccc3)ccc2c1=O` (stereo unspecified): 217 to 220 °C.
For `Cc1c(F)c(F)c(CNc2ccc(O)c(C(=O)O)c2)c(F)c1F` the value was 212 °C; for `NS(=O)(=O)c1ccc(NC(=O)Nc2ccc(I)cc2)cc1`, 275 to 277 °C; for `COC(=O)c1ccc(NC(=O)C(N)c2ccc3c(c2)C(C)(C)CCC3(C)C)n1C` (stereo unspecified), 143 to 144 °C.
`Fc1ccc(-c2ccc(N3CCCN(c4ccc(-c5ccc(F)cc5)cn4)CC3)nc2)cc1`: the melting point lay in the range of 268 to 270 °C.
In the case of `CCCC1(Br)Cc2c3c(c(C)c(C)c2C1=O)OC(C(=O)O)C3` (stereo unspecified), the melting point was 78 °C.
The same measure for `Cc1cc(Br)cc(C=O)c1F`: 48 to 50 °C; for `N#Cc1c(Br)c(Br)n(C(=O)c2ccc(Cl)cc2)c1Br`: 154 to 157 °C; for `CCCc1nc2c(N)nc3ccc(-c4cccc(CN)c4)cc3c2s1`: 189 to 191 °C.
The same measure for `COC(=O)c1ccc(NC(=O)c2sc3ccc(OC)cc3c2Cl)cc1`: 205 to 206 °C; for `O=C1NC(Cc2cccs2)C(=O)NC1Cc1ccc(OCc2ccccc2)cn1` (stereo unspecified): 201 to 203 °C.
